This passage reports Ki and Km results from article PMC7864676 (Journal of pharmacological sciences, 2018).

Data set [1] addresses T1, human organic anion transporter-3 (hOAT3) (Homo sapiens, UniProt Q8TCC7).
T1 sequence (Q8TCC7 1-542): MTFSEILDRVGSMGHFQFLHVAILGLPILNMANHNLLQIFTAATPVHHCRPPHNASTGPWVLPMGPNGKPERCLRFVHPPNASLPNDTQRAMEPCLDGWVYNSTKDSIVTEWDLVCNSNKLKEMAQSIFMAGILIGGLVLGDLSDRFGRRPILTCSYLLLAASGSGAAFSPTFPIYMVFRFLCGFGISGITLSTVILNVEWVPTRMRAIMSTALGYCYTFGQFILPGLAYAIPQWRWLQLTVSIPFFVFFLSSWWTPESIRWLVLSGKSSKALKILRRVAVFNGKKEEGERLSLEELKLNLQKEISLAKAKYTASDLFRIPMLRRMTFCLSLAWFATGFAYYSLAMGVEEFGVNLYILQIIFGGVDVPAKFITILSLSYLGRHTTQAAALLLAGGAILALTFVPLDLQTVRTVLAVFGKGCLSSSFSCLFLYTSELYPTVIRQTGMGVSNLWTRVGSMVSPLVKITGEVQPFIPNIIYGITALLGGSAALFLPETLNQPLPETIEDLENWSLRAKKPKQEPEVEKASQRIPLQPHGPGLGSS
The experiment in a line: cis-inhibition of [3H]-estrone sulfate uptake in hOAT3-expressing HEK293 cells. In kind it is cell-based.

Substrate in data set [2]: C[C@]12CC[C@@H]3c4ccc(OS(=O)(=O)O)cc4CC[C@H]3[C@@H]1CCC2=O
The experiment in a line: cells, lysate or membranes.

A word on the Ki: it is a dissociation constant, usually derived from enzyme kinetics or from competition with a known ligand. In data set [1], `C[C@@H]1C[C@H]2[C@@H]3CCC4=CC(=O)C=C[C@]4(C)[C@@]3(F)[C@@H](O)C[C@]2(C)[C@@]1(O)C(=O)CO` [dexamethasone] registered a Ki of 47.1 µM.

B1: human organic anion transporter-3 (hOAT3) (Homo sapiens) (protein)
chain: MTFSEILDRVGSMGHFQFLHVAILGLPILNMANHNLLQIFTAATPVHHCRPPHNASTGPWVLPMGPNGKPERCLRFVHPPNASLPNDTQRAMEPCLDGWVYNSTKDSIVTEWDLVCNSNKLKEMAQSIFMAGILIGGLVLGDLSDRFGRRPILTCSYLLLAASGSGAAFSPTFPIYMVFRFLCGFGISGITLSTVILNVEWVPTRMRAIMSTALGYCYTFGQFILPGLAYAIPQWRWLQLTVSIPFFVFFLSSWWTPESIRWLVLSGKSSKALKILRRVAVFNGKKEEGERLSLEELKLNLQKEISLAKAKYTASDLFRIPMLRRMTFCLSLAWFATGFAYYSLAMGVEEFGVNLYILQIIFGGVDVPAKFITILSLSYLGRHTTQAAALLLAGGAILALTFVPLDLQTVRTVLAVFGKGCLSSSFSCLFLYTSELYPTVIRQTGMGVSNLWTRVGSMVSPLVKITGEVQPFIPNIIYGITALLGGSAALFLPETLNQPLPETIEDLENWSLRAKKPKQEPEVEKASQRIPLQPHGPGLGSS
For orientation: Km means the substrate concentration at which the rate is half of its maximum. Regarding B1, the Km in data set [2] was 5.07 ± 0.49 µM.
